Experimental findings from patent US10765741B2, “Methods for treating VEGF-expressing cancer using preformed nanoparticle complexes comprising albumin-bound paclitaxel and bevacizumab” (Mayo Foundation for Medical Education and Research, priority 2011, dated 2020) are described below.

A short description of experiment [1]: Complex formation of labeled antibodies with labeled Abraxane nanoparticles, flow cytometry. It counts as binding. To be noted: fluorescently labeled antibody and nanoparticles.
Protocol: Three therapeutic monoclonal antibodies (bevacizumab, trastuzamab, and rituxan) were fluorescently labeled and incubated with fluorescently labeled Abraxane® nanoparticles. The particles were spun down, washed, and visualized by flow cytometry.
A short description of experiment [2]: Bevacizumab incubated with free paclitaxel, Western blot with anti-paclitaxel antibody. The following applies: 4 mg bevacizumab, paclitaxel 0.1-2 mg, 30 minutes room temperature. Format: binding. The method, then: The following was performed to determine if bevacizumab binds free paclitaxel. 4 mg of bevacizumab was incubated with paclitaxel (0.1, 0.5, 1, or 2 mg) for 30 minutes at room temperature.
(In general: Immunoblotting shows a protein as a band on a membrane.)

For the substance “bevacizumab: Humanized monoclonal antibody that binds to vascular endothelial growth factor A”, the “complex formation with Abraxane nanoparticles” value in experiment [1] is “spontaneously formed complexes”. For the same substance, the “binding of free paclitaxel” value in experiment [2] is reported as “did not bind”.
Regarding “rituxan: Therapeutic monoclonal antibody”, in experiment [1], the “complex formation with Abraxane nanoparticles” value is listed as “spontaneously formed complexes”.
